Test results reported in US4895841A (priority 1987, dated 1990).
Where a name gives a salt, the structure may show the parent alone.

molecular target: T1, acetylcholinesterase (Mus musculus, UniProt P21836); assay: biochemical; type: biochemical; details: not given
T1 construct: A mouse brain homogenate was used as an acetylcholinesterase source; from tissue; host or cells: mouse brain homogenate
T1 sequence (P21836 32-614): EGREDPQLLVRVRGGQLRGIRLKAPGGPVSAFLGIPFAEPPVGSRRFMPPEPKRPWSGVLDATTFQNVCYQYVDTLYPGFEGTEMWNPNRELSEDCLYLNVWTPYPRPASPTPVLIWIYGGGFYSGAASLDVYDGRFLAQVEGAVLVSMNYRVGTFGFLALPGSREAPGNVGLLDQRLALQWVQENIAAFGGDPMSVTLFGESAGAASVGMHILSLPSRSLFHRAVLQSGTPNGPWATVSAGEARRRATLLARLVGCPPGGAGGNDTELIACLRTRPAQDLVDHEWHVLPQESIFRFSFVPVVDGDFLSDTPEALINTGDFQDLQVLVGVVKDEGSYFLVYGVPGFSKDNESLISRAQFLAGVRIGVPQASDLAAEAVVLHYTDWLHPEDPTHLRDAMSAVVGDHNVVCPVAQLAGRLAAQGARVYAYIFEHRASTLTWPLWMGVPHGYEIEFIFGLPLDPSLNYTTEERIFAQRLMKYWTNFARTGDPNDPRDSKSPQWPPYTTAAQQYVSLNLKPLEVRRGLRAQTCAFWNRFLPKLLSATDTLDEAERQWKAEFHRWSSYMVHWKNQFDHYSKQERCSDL

SMILES	IC50 [nM]
O=C1C(=CC2CCN(Cc3ccccc3)CC2)C(=O)c2ccccc21 [Example 184, 1-Benzyl-4-[(1,3-indanedion)-2-ylidenyl]methylpiperidine]	> 5000
O=C1c2cccnc2CN1CCC1CCN(Cc2ccccc2)CC1 [Example 5, 2-[4'-(1'-Benzylpiperidine)ethyl]-2,3-dihydro-1-oxypyrrolo[3,4-b]pyridine dihydrochloride]	100
COc1cc2c(cc1O)CC(CC1CCN(Cc3ccccc3)CC1)C2=O (centres unmarked) [Example 197]	380
O=C1C(=CC2CCN(Cc3ccccc3)CC2)CCc2ccccc21 [Example 218]	20000
CN1CC(=O)N(CCC2CCN(Cc3ccccc3)CC2)c2ccccc2C1 [Example 9, 1-[4'-(1'-Benzylpiperidine)ethyl-1,2,3,4-tetrahydro-4-methyl-5H-[1,4]-benzodiazepin-2-one dihydrochloride]	51
O=C1C(=CC2CCN(Cc3ccccc3)CC2)CCCc2ccccc21 [Example 219]	19000
COc1cc2c(cc1OC)C(=NNc1ccc([N+](=O)[O-])cc1[N+](=O)[O-])C(CC1CCN(Cc3ccccc3)CC1)C2 (centres unmarked) [Example 246]	4400
Cc1cccc2c1CC(=CC1CCN(Cc3ccccc3)CC1)C2=O [Example 213]	50
COc1cc2c(cc1OC)C(=O)C(C(C1CCN(Cc3ccccc3)CC1)C1Cc3cc(OC)c(OC)cc3C1=O)C2 (centres unmarked) [Example 249]	620
COc1cc2c(cc1OC)C(=O)C(=CCCCC1CCN(Cc3ccccc3)CC1)C2 [Example 222]	11
COc1cccc2c1CC(=CC1CCN(Cc3ccccc3)CC1)C2=O [Example 207]	49
CC(CC1CCN(Cc2ccccc2)CC1)C(=O)c1ccccc1 (centres unmarked) [Example 202]	1200
Cc1cccc2c1CC(CC1CCN(Cc3ccccc3)CC1)C2=O (centres unmarked) [Example 195]	7.1
O=C1C(=CC2CCN(Cc3ccccc3)CC2)Cc2ccc(F)cc21 [Example 211]	2000
CC(=CC1CCN(Cc2ccccc2)CC1)C(=O)c1ccccc1 [Example 220]	11000
COc1cc2c(cc1OC)CC(CC1CCN(Cc3ccccc3)CC1)=C2 [Example 185, 1-Benzyl-4-[(5,6-dimethoxyinden)-2-yl]methylpiperidine hydrochloride]	0.82
COc1cc2c(cc1OCc1ccccc1)CC(=CC1CCN(Cc3ccccc3)CC1)C2=O [Example 215]	4.2
CCOc1cc2c(cc1OCC)C(=O)C(CC1CCN(Cc3ccccc3)CC1)C2 (centres unmarked) [Example 198]	5.4
COc1cc2c(cc1OC)C(=O)C(=CCCCCC1CCN(Cc3ccccc3)CC1)C2 [Example 223]	5.4
COc1cccc(CN2CCC(CC3Cc4cc(OC)c(OC)cc4C3=O)CC2)c1 (centres unmarked) [Example 235]	220
COc1cc2c(cc1OC)C(=O)C(CC1CCN(Cc3cccnc3)CC1)C2 (centres unmarked) [Example 238]	72
COc1cc2c(cc1OC(C)C)CC(CC1CCN(Cc3ccccc3)CC1)C2=O (centres unmarked) [Example 203]	9

same assay, conditions: in vitro, mouse brain homogenate; Table 10; read-out: Inhibitory activity on AChE IC50

SMILES	IC50 [nM]
COc1cc2c(cc1OC)C(=O)C(CC1CCN(Cc3ccc(C)cc3)CC1)C2 (centres unmarked) [Example 229]	40
COc1cc2c(cc1OC)C(=O)C(CC1CCNCC1)C2 (centres unmarked) [Example 179, 4-[(5,6-Dimethoxy-1-indanon)-2-yl]methylpiperidine hydrochloride]	5400

same assay, conditions: read-out: AChE inhibitory activity IC50

SMILES	IC50 [nM]
CC(=O)N(CCC1CCN(Cc2ccccc2)CC1)c1ccccc1 [Example 17, N-[4'-(1'-Benzylpiperidyl)ethyl]acetanilide]	52
O=C1c2ccccc2NCN1CCC1CCN(Cc2ccccc2)CC1 [Example 52]	800

same assay, conditions: read-out: Inhibitory activity on AChE IC50

SMILES	IC50 [nM]
COc1cc2c(cc1OC)C(=O)C(CC1CCN(Cc3ccccc3[N+](=O)[O-])CC1)C2 (centres unmarked) [Example 230]	160
COc1cc2c(cc1OC)C(=O)C(CC1CCN(Cc3cccc(F)c3)CC1)C2 (centres unmarked) [Example 180, 1-(3-Fluorobenzyl)-4-[(5,6-dimethoxy-1-indanon)-2-yl]methylpiperidine hydrochloride]	1
COc1ccc2c(c1)C(=O)C(=CC1CCN(Cc3ccccc3)CC1)C2 [Example 206]	410
